Assay results reported in PMC4019989 (Clinical cancer research : an official journal of the …, 2009).

System: patients with relapsed or refractory hematologic malignancies
Experiment: Phase 1 dose escalation: adverse events, DLT, MTD
Assay type: in vivo

SMILES: CC(C)C[C@H](NC(=O)[C@H](CCc1ccccc1)NC(=O)CN1CCOCC1)C(=O)N[C@@H](Cc1ccccc1)C(=O)N[C@@H](CC(C)C)C(=O)[C@@]1(C)CO1 [carfilzomib]
- Adverse event Pyrexia, Grade 4 (All patients (N = 29), all dose cohorts): 0 (0) n (%)
- Patients who discontinued study treatment due to adverse events (Four of the 29 patients): 14%
- Patients with grade 2 anemia (across all cohorts): three
- Incidence of anemia (across all cohorts, five patients, doses 1.2 to 15 mg/m^2): 17%
- Adverse event Dyspnea, All Grades (human, in vivo): 8 (28) n (%)
- Adverse event Dyspnea, Grade 1 (human, in vivo): 6 (21) n (%)
- Adverse event Dyspnea, Grade 2 (human, in vivo): 0 (0) n (%)
- Adverse event Dyspnea, Grade 3 (human, in vivo): 1 (3) n (%)
- Adverse event Dyspnea, Grade 4 (human, in vivo): 1 (3) n (%)
- Adverse event Exertional dyspnea, All Grades (human, in vivo): 6 (21) n (%)
- Adverse event Exertional dyspnea, Grade 1 (human, in vivo): 6 (21) n (%)
- Adverse event Exertional dyspnea, Grade 2 (human, in vivo): 0 (0) n (%)
- Adverse event Exertional dyspnea, Grade 3 (human, in vivo): 0 (0) n (%)
- Adverse event Exertional dyspnea, Grade 4 (human, in vivo): 0 (0) n (%)
- Adverse event Fatigue, All Grades (human, in vivo): 14 (48) n (%)
- Adverse event Fatigue, Grade 1 (human, in vivo): 10 (35) n (%)
- Adverse event Fatigue, Grade 2 (human, in vivo): 3 (10) n (%)
- Adverse event Fatigue, Grade 3 (human, in vivo): 1 (3) n (%)
- Adverse event Fatigue, Grade 4 (human, in vivo): 0 (0) n (%)
- Adverse event Headache, All Grades (human, in vivo): 7 (24) n (%)
- Adverse event Headache, Grade 1 (human, in vivo): 7 (24) n (%)
- Adverse event Headache, Grade 2 (human, in vivo): 0 (0) n (%)
- Adverse event Headache, Grade 3 (human, in vivo): 0 (0) n (%)
- Adverse event Headache, Grade 4 (human, in vivo): 0 (0) n (%)
- Adverse event Hypoesthesia, All Grades (human, in vivo): 8 (28) n (%)
- Adverse event Hypoesthesia, Grade 1 (human, in vivo): 5 (17) n (%)
- Adverse event Hypoesthesia, Grade 2 (human, in vivo): 3 (10) n (%)
- Adverse event Hypoesthesia, Grade 3 (human, in vivo): 0 (0) n (%)
- Adverse event Hypoesthesia, Grade 4 (human, in vivo): 0 (0) n (%)
- Adverse event Nausea, All Grades (human, in vivo): 14 (48) n (%)
- Adverse event Nausea, Grade 1 (human, in vivo): 11 (38) n (%)
- Adverse event Nausea, Grade 2 (human, in vivo): 3 (10) n (%)
- Adverse event Nausea, Grade 3 (human, in vivo): 0 (0) n (%)
- Adverse event Nausea, Grade 4 (human, in vivo): 0 (0) n (%)
- Adverse event Paresthesia, All Grades (human, in vivo): 6 (21) n (%)
- Adverse event Paresthesia, Grade 1 (human, in vivo): 4 (14) n (%)
- Adverse event Paresthesia, Grade 2 (human, in vivo): 2 (7) n (%)
- Adverse event Paresthesia, Grade 3 (human, in vivo): 0 (0) n (%)
- Adverse event Paresthesia, Grade 4 (human, in vivo): 0 (0) n (%)
- Adverse event Peripheral edema, All Grades (human, in vivo): 7 (24) n (%)
- Adverse event Peripheral edema, Grade 1 (human, in vivo): 7 (24) n (%)
- Adverse event Peripheral edema, Grade 2 (human, in vivo): 0 (0) n (%)
- Adverse event Peripheral edema, Grade 3 (human, in vivo): 0 (0) n (%)
- Adverse event Peripheral edema, Grade 4 (human, in vivo): 0 (0) n (%)
- Adverse event Pyrexia, All Grades (human, in vivo): 8 (28) n (%)
- Grade 3 and 4 adverse events: ALT increased, Grade 3 (human, in vivo): 1 (3) n (%)
- Grade 3 and 4 adverse events: ALT increased, Grade 4 (human, in vivo): 0 (0) n (%)
- Grade 3 and 4 adverse events: Acute bronchitis, Grade 3 (human, in vivo): 1 (3) n (%)
- Grade 3 and 4 adverse events: Acute bronchitis, Grade 4 (human, in vivo): 0 (0) n (%)
- Grade 3 and 4 adverse events: Acute bronchitis, Grades 3-4 (human, in vivo): 1 (3) n (%)
- Grade 3 and 4 adverse events: Alkaline phosphatase increased, Grade 3 (human, in vivo): 1 (3) n (%)
- Grade 3 and 4 adverse events: Alkaline phosphatase increased, Grade 4 (human, in vivo): 0 (0) n (%)
- Grade 3 and 4 adverse events: Alkaline phosphatase increased, Grades 3-4 (human, in vivo): 1 (3) n (%)
- Grade 3 and 4 adverse events: Anemia, Grade 3 (human, in vivo): 1 (3) n (%)
- Grade 3 and 4 adverse events: Anemia, Grade 4 (human, in vivo): 0 (0) n (%)
- Grade 3 and 4 adverse events: Dyspnea, Grade 3 (human, in vivo): 1 (3) n (%)
- Grade 3 and 4 adverse events: Dyspnea, Grade 4 (human, in vivo): 1 (3) n (%)
- Grade 3 and 4 adverse events: Fatigue, Grade 3 (human, in vivo): 1 (3) n (%)
- Grade 3 and 4 adverse events: Fatigue, Grade 4 (human, in vivo): 0 (0) n (%)
- Grade 3 and 4 adverse events: Fatigue, Grades 3-4 (human, in vivo): 1 (3) n (%)
- Grade 3 and 4 adverse events: Febrile neutropenia, Grade 3 (human, in vivo): 1 (3) n (%)
- Grade 3 and 4 adverse events: Febrile neutropenia, Grade 4 (human, in vivo): 0 (0) n (%)
- Grade 3 and 4 adverse events: Febrile neutropenia, Grades 3-4 (human, in vivo): 1 (3) n (%)
- Grade 3 and 4 adverse events: Gastrointestinal hemorrhage, Grade 3 (human, in vivo): 1 (3) n (%)
- Grade 3 and 4 adverse events: Gastrointestinal hemorrhage, Grade 4 (human, in vivo): 0 (0) n (%)
- Grade 3 and 4 adverse events: Gastrointestinal hemorrhage, Grades 3-4 (human, in vivo): 1 (3) n (%)
- Grade 3 and 4 adverse events: Hemoglobin decreased, Grade 3 (human, in vivo): 1 (3) n (%)
- Grade 3 and 4 adverse events: Hemoglobin decreased, Grade 4 (human, in vivo): 0 (0) n (%)
- Grade 3 and 4 adverse events: Hemoglobin decreased, Grades 3-4 (human, in vivo): 1 (3) n (%)
- maximum tolerated dose (MTD) (i.v. push on 5 consecutive days within 14-day cycles): 15 mg/m^2
- DLTs in the initial seven dose cohorts (in vivo): No DLTs were observed
